Assay results taken from patent US20260285816A1, “Piperazinyl-Modified Quinazolinyl-Aryl Urea Derivative, And Preparation Method And Use Thereof” (Guangxi Normal University, priority 2025, published 2026).

Tests used:
BxPC-3 cells = assay: Cell cycle analysis (PI staining, flow cytometry), BxPC-3; assay type: cell-based, human
Procedure: (§1) Tumor cells (T24, UM-UC-3, 143B, BxPC-3) in logarithmic growth phase were inoculated into 70 mm culture dishes. After 70% confluency was reached, medium was replaced and treated with: compound 8-1j, ferroptosis inducer Erastin, or cell cycle blocker paclitaxel (PTX) for a specified duration. Post-incubation, cells were trypsinized, collected, centrifuged, and washed 2 times with pre-cooled phosphate-buffered saline (PBS). Pre-cooled 75% ethanol was added dropwise during vortexing for fixation at −20° C. overnight. After centrifugation (10 min), supernatant was discarded. Cells were rewashed with PBS and centrifuged. Following kit instructions (Beyotime, C1052, China), 0.5 mL staining buffer, 25 μL PI (propidium iodide) stain (20×), and 10 μL RNase A (50×) were mixed per sample. Cells were resuspended in PI staining solution and incubated at 37° C. in dark for 30 min (gentle shaking every 10 min). Samples were filtered through 200-mesh filters, transferred into a flow tube, and analyzed via BD FACSVerse flow cytometer. All experiments were conducted in 3 repeats. Compounds 8-2h and 8-2j were evaluated identically.

[1] = system: human pancreatic cancer BxPC-3; assay: BxPC-3 tumor-bearing nude mouse model; assay type: in vivo, nude mice; set-up: Tumor growth control, high dose: dose or concentration left out as unconfirmed
T24 cells = assay: Cell cycle analysis (PI staining, flow cytometry), T24; assay type: cell-based, human
Procedure: as §1

143B cells = assay: Cell cycle analysis (PI staining, flow cytometry), 143B; assay type: cell-based, human
Procedure: as §1

[2] = system: FoxM1, KIF20A, Nrf2, xCT, GPx4, FTH1, HO-1, IRP2, CD71 in bladder cancer T24 cells; assay: Western blot of cell cycle- and ferroptosis-related proteins; assay type: cell-based, human
Procedure: Experimental method: bladder cancer T24 cells in logarithmic growth phase were inoculated into 100 mm culture dishes. After 70% confluency was reached, medium was replaced and treated with compound 8-1j or ferroptosis inhibitor Fer-1. Post-co-incubation, cells were trypsinized, collected, and washed with pre-cooled PBS. 0.2 mL of RIPA cell lysis buffer was added to each tube, mixed thoroughly, and transferred to a 1.5 mL centrifuge tube, and lysed on ice with agitation for 30 min. Lysates were centrifuged at 12,000 rpm (4° C., 10 min) to collect supernatants. Supernatants were mixed with 5×SDS-PAGE protein loading buffer, heated at 95° C. for 7 min, and stored at −80° C. SDS-PAGE (sodium dodecyl sulfate-polyacrylamide gel electrophoresis) was conducted at 80 V until entry into separating gel, then at 120 V until bromophenol blue reached the gel bottom. Gels were cut according to molecular weight indicated by Marker, transferred to membranes, blocked, and then immune reaction was performed. Protein bands were visualized by an enhanced chemiluminescence (ECL) detection system. Band densities were analyzed using ImageJ software. Three repeated experiments were conducted.

bladder cancer J82 cells = assay: J82 tumor-bearing nude mouse model; assay type: in vivo, BALB/c-nu mice
Procedure: (§2) Experimental method: bladder cancer J82 cells in logarithmic growth phase were trypsinized, collected, and then centrifuged, and resuspended in serum-free DMEM medium after discarding an original medium. Cell density was adjusted, and 0.2 mL cell suspension was subcutaneously inoculated into 5-week-old BALB/c-nu mice (sex-balanced, 18-20 g) under a laminar flow clean bench. Post-inoculation, bleeding at injection sites was monitored. When tumors reached 50-80 mm^3, nude mice with good tumor growth status were randomized into 5 groups (n=6/group) for intraperitoneal administration. Tumor volume and body weight were recorded on Day 0. […] Dosing occurred every 2 d for 42 d. After administering the drug, mice were monitored for diarrhea, anorexia, lethargy, and allergic reactions (e.g., pruritus). The body weight of nude mice was measured every 2 days, and the long and short diameters of the tumors in nude mice were measured by using a vernier caliper, then the recording was finished.
0.9% normal saline was added thereto to obtain a solution, which was sterilized under UV light for 30 min. Administration volume was 10 mL/kg per mouse. The preparation contained PEG400 and 0.9% normal saline at a 3:1 volume ratio, with 2% (v/v) DMA.

human osteosarcoma 143B = assay: 143B tumor-bearing nude mouse model; assay type: in vivo, nude mice; conditions: 40 mg/kg oral gavage, every 2 d, 42 d
Procedure: as §2
Construction of the human osteosarcoma 143B tumor-bearing nude mouse model followed similar procedures, with identical dosing frequency but administration route changed to oral gavage. Specifically: When tumors reached 60-90 mm^3, mice were randomized into 4 groups (n=6). […]

[3] = 20 mg/kg intraperitoneal, every 2 d for 42 d

SMILES	Cell cycle arrest phase, high concentration (BxPC-3 cells; high concentration (>6 μM))	Cell cycle arrest phase, low concentration (BxPC-3 cells; low concentration (e.g., 3 μM))	Effect of co-administration with PTX on cell cycle (BxPC-3 cells; with PTX)	Tumor growth control, high dose [1]	Tumor after continued administration ([1]; high dose, oral gavage, up to 42 d)	Toxicity observations ([1]; oral gavage, gemcitabine 24 mg/kg, 8-2h 12, 24, 36 mg/kg)	Effect of co-administration with PTX on cell cycle (T24 cells; T24, with PTX)	Cell cycle arrest phase (T24 cells; T24 cells (FIG. 44))	Cell cycle arrest phase (143B cells; 143B cells (FIG. 46))	Effect of co-administration with PTX on cell cycle (143B cells; 143B, with PTX)	Ferroptosis-related proteins HO-1, IRP2, and CD71 expression [2]	FoxM1, KIF20A, Nrf2, xCT, GPx4, and FTH1 expression ([2]; concentration-dependently)	Body weight and tolerability observations (bladder cancer J82 cells; [3])	Tumor growth rates vs. vehicle control and equi-dose positive control (bladder cancer J82 cells; [3])	Anti-tumor efficacy compared with 9g (A-2) (bladder cancer J82 cells; at 20 mg/kg intraperitoneal)	Tumor inhibition (human osteosarcoma 143B)
CCc1cccc(CC)c1NC(=O)Nc1cccc(CNc2ncnc3cc(OC)c(OCCCCCCN4CCC(CN5CCN(c6ccccn6)CC5)CC4)cc23)c1 [Compound 8-2h, N-(3-(((7-methoxy-6-((6-(4-((4-(pyridin-2-yl)piperazin-1-yl)methyl)piperidin-1-yl)hexyl)oxy)quinazolin-4-yl)amino)methyl)phenyl)-N′-(2,6-diethylphenyl)urea]	G2/M arrest	G0/G1 arrest	Synergistic effects	controls tumor growth by Day 28	significantly shrank	no toxicity	–	–	–	–	–	–	–	–	–	–
COc1cc2ncnc(NCc3cccc(NC(=O)Nc4ccc(C(C)(C)C)cc4)c3)c2cc1OCCCCCCN1CCN(CCN2CCOCC2)CC1 [Compound 8-1j, N-(3-(((7-methoxy-6-((6-(4-(2-morpholinoethyl)piperazin-1-yl)hexyl)oxy)quinazolin-4-yl)amino)methyl)phenyl)-N′-(4-tert-butylphenyl)urea]	–	–	–	–	–	–	Synergistic effects	arrest cell cycle at G2/M phase	arrest cell cycle at G2/M phase	Synergistic effects	upregulating	significantly downregulates	Mild weight loss occurs without anorexia, diarrhea, or pruritus	significantly lower	surpassed that of 9g (A-2)	significantly stronger tumor inhibition than positive control Apat
